Source: the supplement of paper PMC10307832

What was measured:
Test in all cases: relative viability (nuclei count vs DMSO), 5 days (fraction); higher = more cells survive
ChaGo-K-1 = test system: ChaGo-K-1
Method in brief: (§1)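 Relative viability is defined as nuclei in treated wells over nuclei in vehicle wells. Duplicate plates were run and medians reported. Lung cancer cell lines in 1536-well plates were dosed by pin tool one day after seeding, with one drug or with a fixed anchor-drug dose plus five library-drug doses (not always all listed) in √10 steps, and nuclei were counted after 5 days.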

NCI-H2126 = test system: NCI-H2126
Method in brief: as §1

EPLC-272H = test system: EPLC-272H
Method in brief: as §1

SW 1573 = test system: SW 1573
Method in brief: as §1

NCI-H2023 = test system: NCI-H2023
Method in brief: as §1

NCI-H460 = test system: NCI-H460
Method in brief: as §1

NCI-H441 = test system: NCI-H441
Method in brief: as §1

NCI-H2170 = test system: NCI-H2170
Method in brief: as §1

LOU-NH91 = test system: LOU-NH91
Method in brief: as §1

NCI-H727 = test system: NCI-H727
Method in brief: as §1

NCI-H23 = test system: NCI-H23
Method in brief: as §1

NCI-H1437 = test system: NCI-H1437
Method in brief: as §1

HOP-62 = test system: HOP-62
Method in brief: as §1

NCI-H2405 = test system: NCI-H2405
Method in brief: as §1

NCI-H2347 = test system: NCI-H2347
Method in brief: as §1

NCI-H1793 = test system: NCI-H1793
Method in brief: as §1

NCI-H2009 = test system: NCI-H2009
Method in brief: as §1

NCI-H647 = test system: NCI-H647
Method in brief: as §1

EMC-BAC-2 = test system: EMC-BAC-2
Method in brief: as §1

NCI-H520 = test system: NCI-H520
Method in brief: as §1

HCC-44 = test system: HCC-44
Method in brief: as §1

O=C(O)CCCCC(CCSCc1ccccc1)SCc1ccccc1 (centres undefined) [CPI-613] + CC1(C)CCC(c2ccc(Cl)cc2)=C(CN2CCN(c3ccc(C(=O)NS(=O)(=O)c4ccc(N[C@H](CCN5CCOCC5)CSc5ccccc5)c(S(=O)(=O)C(F)(F)F)c4)cc3)CC2)C1 [Navitoclax] (partner 0.5 µM)
relative viability (ChaGo-K-1; first compound 5 µM): 0.671
relative viability (ChaGo-K-1; first compound 15.81 µM): 0.982
relative viability (ChaGo-K-1; first compound 50 µM): 0.935
relative viability (ChaGo-K-1; first compound 158.11 µM): 0.882
relative viability (ChaGo-K-1; first compound 500 µM): 0.643
relative viability (NCI-H2126; first compound 5 µM): 0.9
relative viability (NCI-H2126; first compound 15.81 µM): 0.805
relative viability (NCI-H2126; first compound 50 µM): 0.815
relative viability (NCI-H2126; first compound 158.11 µM): 0.662
relative viability (NCI-H2126; first compound 500 µM): 0.645
relative viability (EPLC-272H; first compound 5 µM): 1.24
relative viability (EPLC-272H; first compound 15.81 µM): 0.897
relative viability (EPLC-272H; first compound 50 µM): 1.11
relative viability (EPLC-272H; first compound 158.11 µM): 0.86
relative viability (EPLC-272H; first compound 500 µM): 0.765
relative viability (SW 1573; first compound 5 µM): 0.871
relative viability (SW 1573; first compound 15.81 µM): 0.962
relative viability (SW 1573; first compound 50 µM): 0.792
relative viability (SW 1573; first compound 158.11 µM): 0.819
relative viability (SW 1573; first compound 500 µM): 0.904
relative viability (NCI-H2023; first compound 5 µM): 1.01
relative viability (NCI-H2023; first compound 15.81 µM): 0.997
relative viability (NCI-H2023; first compound 50 µM): 0.951
relative viability (NCI-H2023; first compound 158.11 µM): 0.103
relative viability (NCI-H2023; first compound 500 µM): 0.0259
relative viability (NCI-H460; first compound 5 µM): 1.12
relative viability (NCI-H460; first compound 15.81 µM): 1.09
relative viability (NCI-H460; first compound 50 µM): 1.03
relative viability (NCI-H460; first compound 158.11 µM): 0.29
relative viability (NCI-H460; first compound 500 µM): 0.0105
relative viability (NCI-H441; first compound 5 µM): 0.564
relative viability (NCI-H441; first compound 15.81 µM): 0.805
relative viability (NCI-H441; first compound 50 µM): 0.731
relative viability (NCI-H441; first compound 158.11 µM): 0.186
relative viability (NCI-H441; first compound 500 µM): 0.0161
relative viability (NCI-H2170; first compound 5 µM): 0.6
relative viability (NCI-H2170; first compound 15.81 µM): 0.573
relative viability (NCI-H2170; first compound 50 µM): 0.593
relative viability (NCI-H2170; first compound 158.11 µM): 0.396
relative viability (NCI-H2170; first compound 500 µM): 0.0998
relative viability (LOU-NH91; first compound 5 µM): 0.683
relative viability (LOU-NH91; first compound 15.81 µM): 0.653
relative viability (LOU-NH91; first compound 50 µM): 0.664
relative viability (LOU-NH91; first compound 158.11 µM): 0.682
relative viability (LOU-NH91; first compound 500 µM): 0.579
relative viability (NCI-H727; first compound 5 µM): 0.386
relative viability (NCI-H727; first compound 15.81 µM): 0.337
relative viability (NCI-H727; first compound 50 µM): 0.331
relative viability (NCI-H727; first compound 158.11 µM): 0.0645
relative viability (NCI-H727; first compound 500 µM): 0.046
relative viability (NCI-H23; first compound 5 µM): 0.858
relative viability (NCI-H23; first compound 15.81 µM): 0.711
relative viability (NCI-H23; first compound 50 µM): 0.801
relative viability (NCI-H23; first compound 158.11 µM): 0.564
relative viability (NCI-H23; first compound 500 µM): 0.027
relative viability (NCI-H1437; first compound 5 µM): 1.03
relative viability (NCI-H1437; first compound 15.81 µM): 0.957
relative viability (NCI-H1437; first compound 50 µM): 1.03
relative viability (NCI-H1437; first compound 158.11 µM): 0.199
relative viability (NCI-H1437; first compound 500 µM): 0.0367
relative viability (HOP-62; first compound 5 µM): 0.927
relative viability (HOP-62; first compound 15.81 µM): 0.992
relative viability (HOP-62; first compound 50 µM): 0.978
relative viability (HOP-62; first compound 158.11 µM): 0.984
relative viability (HOP-62; first compound 500 µM): 0.911
relative viability (NCI-H2405; first compound 5 µM): 0.929
relative viability (NCI-H2405; first compound 15.81 µM): 0.796
relative viability (NCI-H2405; first compound 50 µM): 0.765
relative viability (NCI-H2405; first compound 158.11 µM): 0.795
relative viability (NCI-H2405; first compound 500 µM): 0.67
relative viability (NCI-H2347; first compound 5 µM): 0.748
relative viability (NCI-H2347; first compound 15.81 µM): 0.747
relative viability (NCI-H2347; first compound 50 µM): 0.702
relative viability (NCI-H2347; first compound 158.11 µM): 0.768
relative viability (NCI-H2347; first compound 500 µM): 0.734
relative viability (NCI-H1793; first compound 5 µM): 0.393
relative viability (NCI-H1793; first compound 50 µM): 0.346
relative viability (NCI-H1793; first compound 158.11 µM): 0.363
relative viability (NCI-H1793; first compound 500 µM): 0.1
relative viability (NCI-H2009; first compound 5 µM): 1.18
relative viability (NCI-H2009; first compound 15.81 µM): 1.08
relative viability (NCI-H2009; first compound 50 µM): 1.11
relative viability (NCI-H2009; first compound 158.11 µM): 0.264
relative viability (NCI-H2009; first compound 500 µM): 0.0303
relative viability (NCI-H647; first compound 5 µM): 1.05
relative viability (NCI-H647; first compound 15.81 µM): 1.11
relative viability (NCI-H647; first compound 50 µM): 0.963
relative viability (NCI-H647; first compound 158.11 µM): 0.875
relative viability (NCI-H647; first compound 500 µM): 0.238
relative viability (EMC-BAC-2; first compound 5 µM): 1.15
relative viability (EMC-BAC-2; first compound 15.81 µM): 1.13
relative viability (EMC-BAC-2; first compound 50 µM): 1.15
relative viability (EMC-BAC-2; first compound 158.11 µM): 1.01
relative viability (EMC-BAC-2; first compound 500 µM): 1.06
relative viability (NCI-H520; first compound 5 µM): 0.932
relative viability (NCI-H520; first compound 15.81 µM): 1.1
relative viability (NCI-H520; first compound 50 µM): 1.18
relative viability (NCI-H520; first compound 158.11 µM): 0.355
relative viability (NCI-H520; first compound 500 µM): 0.154
relative viability (HCC-44; first compound 5 µM): 1.03
relative viability (HCC-44; first compound 15.81 µM): 1.08
relative viability (HCC-44; first compound 50 µM): 1.07
relative viability (HCC-44; first compound 158.11 µM): 0.322
relative viability (HCC-44; first compound 500 µM): 0.0385
